# Test results: paper PMC5887109, “Unravelling the Molecular Determinants of Bee Sensitivity to Neonicotinoid Insecticides” (Current Biology, 2018)
# Key:
# [1] = system: transgenic Drosophila expressing honeybee CYP9Q3; test: Insecticide bioassay of transgenic Drosophila expressing CYP9Q3; type: in vivo, Drosophila melanogaster; details: Act5C-GAL4 driven; ratio of LC50 values
# Procedure: (§1) Fly lines were made homozygous for the transgene integrations. […] LC50 values were calculated as above.
# [2] = system: transgenic Drosophila expressing B. terrestris CYP9Q4; test: Insecticide bioassay of transgenic Drosophila expressing CYP9Q4; type: in vivo, Drosophila melanogaster; details: Act5C-GAL4 driven; ratio of LC50 values
# Procedure: as §1
# A. mellifera = test: Acute contact (topical) insecticide bioassay of honeybees, with or without ABT; details: honeybees pretreated with ABT (1-aminobenzotriazole)
# Procedure: Acute contact insecticide assays were performed on female A. mellifera following standard methods OECD 2013 [30]. Bioassays of B. terrestris were based on the OECD guidelines developed for honeybees but with bees assayed in individual Nicot cages. Bees were starved of sucrose solution for up to 2 hr to encourage feeding during the experiment. […] Controls were fed a solution of sucrose containing a concentration of acetone matching that of the highest treatment concentration. After 4-6 hr the syringes were assessed to see if bees had consumed the insecticide-sucrose solution. Those that had not consumed all of the solution were excluded from the experiment. Mortality was assessed 48 hr after feeding and lethal concentrations (LC50 values) were calculated by probit analysis using Genstat version 16 (VSN International). For synergist bioassays, B. terrestris or A. mellifera workers were first treated with 20 μg of piperonyl butoxide or 1 μg of aminobenzotriazole applied to the dorsal thorax. Synergist bioassays included an additional control group treated only with the synergist. 1 hr after synergist application, bees were then treated with the appropriate insecticide dosage as above.
# [3] = system: transgenic Drosophila expressing honeybee CYP9Q1; test: Insecticide bioassay of transgenic Drosophila expressing CYP9Q1; type: in vivo, Drosophila melanogaster; details: Act5C-GAL4 driven; ratio of LC50 values
# Procedure: as §1
smiles,measurement,setting,value
O=[N+]([O-])NC1=NCCN1Cc1ccc(Cl)nc1 [imidacloprid],resistance compared to control flies without the transgene,[1],no significant differences in sensitivity
same,resistance compared to control flies without the transgene,[2],no significant differences
same,fold more sensitive after pretreatment with ABT,A. mellifera,2.7 fold
same,resistance compared to control flies without the transgene,[3],no significant differences in sensitivity
